From EP2308883A1, “New derivatives of thieno[2,3-b]pyridine and 5,6,7,8 tetrahydrothieno[2,3 b]quinoline in particular useful in the treatment of malaria” (priority 2009, dated 2011)

Assays:
Experiment in all cases: Species specificity: recombinant tagged GSK-3 orthologue kinase assay
[1] = biological target: T1, GSK-3 (Plasmodium knowlesi, UniProt A0A679KU36); format: biochemical; conditions: read-out: IC50 Plasmodium knowlesi; calculated from dose-response curves
T1 sequence (A0A679KU36 1-473): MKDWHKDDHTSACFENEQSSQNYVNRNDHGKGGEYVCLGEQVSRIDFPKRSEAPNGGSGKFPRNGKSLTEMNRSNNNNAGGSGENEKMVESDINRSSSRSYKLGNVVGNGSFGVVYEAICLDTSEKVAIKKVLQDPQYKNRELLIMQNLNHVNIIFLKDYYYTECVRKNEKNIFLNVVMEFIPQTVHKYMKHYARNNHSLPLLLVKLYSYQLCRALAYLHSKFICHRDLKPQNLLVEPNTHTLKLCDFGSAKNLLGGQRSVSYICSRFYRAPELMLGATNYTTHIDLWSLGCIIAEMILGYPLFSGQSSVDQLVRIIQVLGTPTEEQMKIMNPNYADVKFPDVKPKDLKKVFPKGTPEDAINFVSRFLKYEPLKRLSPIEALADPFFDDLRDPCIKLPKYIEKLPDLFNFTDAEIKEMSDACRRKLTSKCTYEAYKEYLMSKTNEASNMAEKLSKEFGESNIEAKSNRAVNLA

[2] = biological target: T2, GSK-3 (Toxoplasma gondii, UniProt O44002); format: biochemical, Toxaplasma grondii
T2 sequence (O44002 1-394): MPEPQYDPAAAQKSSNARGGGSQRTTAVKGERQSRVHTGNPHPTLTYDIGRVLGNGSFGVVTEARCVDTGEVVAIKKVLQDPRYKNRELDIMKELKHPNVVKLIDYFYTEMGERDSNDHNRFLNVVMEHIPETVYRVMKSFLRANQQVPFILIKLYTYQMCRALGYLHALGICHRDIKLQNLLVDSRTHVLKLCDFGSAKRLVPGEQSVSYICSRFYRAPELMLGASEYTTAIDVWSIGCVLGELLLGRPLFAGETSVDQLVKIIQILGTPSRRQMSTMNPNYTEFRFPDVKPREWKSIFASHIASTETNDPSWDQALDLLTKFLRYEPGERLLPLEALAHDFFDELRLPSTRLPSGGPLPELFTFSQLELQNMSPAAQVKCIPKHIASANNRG

[3] = biological target: T3, GSK-3 (Cryptosporidium parvum, UniProt A3FQN0); format: biochemical
T3 sequence (A3FQN0 1-433): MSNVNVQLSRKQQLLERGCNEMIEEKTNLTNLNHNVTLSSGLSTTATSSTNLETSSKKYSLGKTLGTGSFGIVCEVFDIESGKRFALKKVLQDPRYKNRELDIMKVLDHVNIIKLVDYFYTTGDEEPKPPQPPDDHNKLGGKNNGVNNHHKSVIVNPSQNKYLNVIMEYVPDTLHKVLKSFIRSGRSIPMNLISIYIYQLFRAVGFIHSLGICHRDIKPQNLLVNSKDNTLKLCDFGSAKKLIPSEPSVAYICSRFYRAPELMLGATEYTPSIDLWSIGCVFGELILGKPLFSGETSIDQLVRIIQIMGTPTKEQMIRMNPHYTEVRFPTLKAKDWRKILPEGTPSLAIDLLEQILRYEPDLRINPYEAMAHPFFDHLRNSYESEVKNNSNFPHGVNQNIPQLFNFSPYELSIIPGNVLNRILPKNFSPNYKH

[4] = biological target: T4, GSK-3 (Trypanosoma cruzi, UniProt Q4E1X0); format: biochemical; conditions: read-out: IC50 Trypanopsoma cruzi; calculated from dose-response curves; -(100) taken as no inhibition at 100
T4 sequence (Q4E1X0 1-353): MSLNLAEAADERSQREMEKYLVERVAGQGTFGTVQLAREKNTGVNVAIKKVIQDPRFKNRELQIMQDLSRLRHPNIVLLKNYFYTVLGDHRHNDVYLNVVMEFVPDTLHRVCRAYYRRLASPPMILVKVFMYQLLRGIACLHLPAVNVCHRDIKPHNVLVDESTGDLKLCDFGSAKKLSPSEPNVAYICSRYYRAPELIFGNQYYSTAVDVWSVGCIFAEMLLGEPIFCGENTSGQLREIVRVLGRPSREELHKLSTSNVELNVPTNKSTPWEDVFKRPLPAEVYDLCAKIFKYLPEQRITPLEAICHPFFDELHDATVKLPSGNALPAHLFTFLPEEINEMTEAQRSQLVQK

[5] = biological target: T5, GSK-3 (Leishmania major, UniProt Q4QE15); format: biochemical, Leishmania majo
T5 construct: made in house
Description: (§1) Given the strong conservation of GSK-3 across evolution and the surprising selectivity of the compounds according to the present invention towards PfGSK-3 versus mammalian GSK-3, a selection of 12 GSK-3 orthologues of various species chosen on the "tree of life" analyzed. The species belong to the Apicomplexa (P. falciparum, P. vivax, P. knowlesi and P. berghei (Gardner, M.J. et al. Genome sequence of the human malaria parasite Plasmodium falciparum. Nature 419, 498-511 (2002); Carlton, J.M. et al. Comparative genomics of the neglected human malaria parasite Plasmodium vivax. Nature 455, 799-803 (2008); Pain, A. et al. The genome of the simian and human malaria parasite Plasmodium knowlesi. Nature 455, 799-803 (2008).). Toxoplasma gondii (Qin, C.L., Tang, J. and Kim, K. Cloning and in vitro expression of TPK3, a Toxoplasma gondii homologue of shaggy/glycogen synthase kinase-3 kinases. Mol. Biochem. Parasitol. 93, 273-283 (1998)), Cryptosporidium parvum.
(§2) Following PCR amplification from cDNA libraries or direct synthesis based on databases sequences, the GSK-3 genes were inserted in appropriate expression vectors and recombinant, tagged kinases were expressed, affinity purified and assayed in the presence of up to 10-100µM of each compound of formula (I) according to the present invention and a selection of the PfGSK-3 inhibitors.

[6] = biological target: T6, GSK-3 (Leishmania donovani, UniProt A6N857); format: biochemical; conditions: read-out: IC50 Leishmania donovani; calculated from dose-response curves
T6 sequence (A6N857 1-355): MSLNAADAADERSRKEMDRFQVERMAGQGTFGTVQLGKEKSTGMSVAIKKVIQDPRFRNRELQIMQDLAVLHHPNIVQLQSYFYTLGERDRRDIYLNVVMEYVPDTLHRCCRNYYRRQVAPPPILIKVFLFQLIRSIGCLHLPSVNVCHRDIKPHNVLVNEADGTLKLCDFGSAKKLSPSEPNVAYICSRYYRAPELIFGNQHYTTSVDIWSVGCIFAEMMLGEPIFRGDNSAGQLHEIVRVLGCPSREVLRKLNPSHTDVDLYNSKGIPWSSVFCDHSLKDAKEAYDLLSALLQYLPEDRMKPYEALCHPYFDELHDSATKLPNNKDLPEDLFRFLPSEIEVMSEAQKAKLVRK

[7] = biological target: T7, GSK-3 (Dictyostelium discoideum, UniProt P51136); format: biochemical
T7 construct: made in house
Description: as §1, §2

[8] = biological target: T8, GSK-3 (Plasmodium falciparum, UniProt O77344); format: biochemical
T8 construct: made in house
Description: as §1, §2

[9] = biological target: T9, GSK-3 α (Homo sapiens, UniProt P49840); format: biochemical; conditions: calculated from dose-response curves; -(100) taken as no inhibition at 100
T9 construct: made in house
Description: as §1, §2

[10] = biological target: GSK-3 α/β; format: biochemical; conditions: calculated from dose-response curves; -(100) taken as no inhibition at 100; read-out: IC50 Sus scrofa (GSK-3 α/β)
Description: as §1, §2

T5 sequence (Q4QE15 entry or part of it): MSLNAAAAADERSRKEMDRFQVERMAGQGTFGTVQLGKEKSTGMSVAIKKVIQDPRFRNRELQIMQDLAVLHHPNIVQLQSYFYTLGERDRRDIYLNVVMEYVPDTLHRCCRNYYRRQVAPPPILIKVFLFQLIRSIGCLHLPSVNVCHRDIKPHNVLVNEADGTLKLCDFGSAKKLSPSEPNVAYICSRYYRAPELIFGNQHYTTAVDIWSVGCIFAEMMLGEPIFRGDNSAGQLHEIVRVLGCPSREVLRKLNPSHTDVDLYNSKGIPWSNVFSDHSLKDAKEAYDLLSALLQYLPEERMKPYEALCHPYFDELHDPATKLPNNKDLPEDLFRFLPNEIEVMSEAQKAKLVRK
T7 sequence (P51136 whole entry): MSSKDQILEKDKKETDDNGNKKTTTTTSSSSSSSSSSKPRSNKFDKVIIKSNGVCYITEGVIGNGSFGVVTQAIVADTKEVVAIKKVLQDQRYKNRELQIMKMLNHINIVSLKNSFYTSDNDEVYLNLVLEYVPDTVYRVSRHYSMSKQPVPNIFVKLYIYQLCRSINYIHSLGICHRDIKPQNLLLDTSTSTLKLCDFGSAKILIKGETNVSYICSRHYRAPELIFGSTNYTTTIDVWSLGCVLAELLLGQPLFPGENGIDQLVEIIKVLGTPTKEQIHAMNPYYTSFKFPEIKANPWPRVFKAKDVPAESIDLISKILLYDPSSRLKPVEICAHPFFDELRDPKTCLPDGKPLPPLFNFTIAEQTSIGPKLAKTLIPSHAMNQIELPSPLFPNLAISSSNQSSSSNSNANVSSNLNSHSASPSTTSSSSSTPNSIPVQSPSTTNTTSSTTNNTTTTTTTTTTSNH
T9 sequence (P49840 whole entry): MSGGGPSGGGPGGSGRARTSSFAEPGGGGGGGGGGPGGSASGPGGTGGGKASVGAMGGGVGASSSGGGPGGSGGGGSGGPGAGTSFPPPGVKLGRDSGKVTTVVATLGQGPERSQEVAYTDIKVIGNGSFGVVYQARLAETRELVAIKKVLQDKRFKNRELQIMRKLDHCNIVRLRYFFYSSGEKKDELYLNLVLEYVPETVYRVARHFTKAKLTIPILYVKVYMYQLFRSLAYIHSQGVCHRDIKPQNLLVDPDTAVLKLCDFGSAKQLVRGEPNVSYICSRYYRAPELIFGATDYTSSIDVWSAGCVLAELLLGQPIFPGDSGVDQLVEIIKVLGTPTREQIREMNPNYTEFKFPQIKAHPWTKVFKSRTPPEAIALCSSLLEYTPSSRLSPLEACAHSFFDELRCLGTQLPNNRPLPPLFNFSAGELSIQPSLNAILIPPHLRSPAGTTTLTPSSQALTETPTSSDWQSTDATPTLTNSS
T8 sequence (O77344 entry or part of it): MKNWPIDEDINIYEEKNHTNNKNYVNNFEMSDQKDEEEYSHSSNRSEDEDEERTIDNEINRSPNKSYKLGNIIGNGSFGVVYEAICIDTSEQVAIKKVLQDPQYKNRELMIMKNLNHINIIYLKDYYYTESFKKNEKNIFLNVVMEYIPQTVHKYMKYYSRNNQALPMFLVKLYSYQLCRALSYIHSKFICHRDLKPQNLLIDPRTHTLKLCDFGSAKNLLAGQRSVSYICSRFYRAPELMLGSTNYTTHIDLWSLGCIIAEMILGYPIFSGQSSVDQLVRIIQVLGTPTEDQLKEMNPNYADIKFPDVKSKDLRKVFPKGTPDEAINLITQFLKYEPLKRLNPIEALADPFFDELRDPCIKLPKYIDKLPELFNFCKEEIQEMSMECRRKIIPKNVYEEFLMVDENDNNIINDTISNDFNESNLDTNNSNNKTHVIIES

SMILES: N#Cc1c(N)nc2sc(C(=O)c3ccc(Cl)cc3)c(N)c2c1-c1ccccc1I [Compound 1, 3,6-diamino-2-(4-chlorobenzoyl)-4-(2-iodophenyl)thieno[2,3-b]pyridine-5-carbonitrile]
- IC50 [1]: 15.5 µM
- IC50 [2]: > 100 µM
- IC50 [3]: > 100 µM
- IC50 [4]: > 100 µM
- IC50 [5]: > 100 µM
- IC50 [6]: 80 µM
- IC50 [7]: > 100 µM
- IC50 [8]: 1900 nM
- IC50 [9]: > 100 µM
- IC50 [10]: > 100 µM
